This is an account of results in patent US20240368135A1 (VERTEX PHARMACEUTICALS INCORPORATED, priority 2021, published 2024).

The structures appear in SMILES notation.

What is called IC50 is the concentration that gives 50% inhibition.

Sequence of human NaV 1.8 (Q9Y5Y9 126-399 limits assumed): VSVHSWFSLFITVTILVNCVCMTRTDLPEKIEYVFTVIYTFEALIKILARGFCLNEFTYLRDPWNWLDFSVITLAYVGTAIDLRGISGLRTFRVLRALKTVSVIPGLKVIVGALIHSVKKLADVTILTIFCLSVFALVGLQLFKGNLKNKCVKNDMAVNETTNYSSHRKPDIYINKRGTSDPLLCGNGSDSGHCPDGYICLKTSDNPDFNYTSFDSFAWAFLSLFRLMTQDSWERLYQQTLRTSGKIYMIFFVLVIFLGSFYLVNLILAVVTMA
Sequence of human NaV 1.8 (Q9Y5Y9 660-890 limits assumed): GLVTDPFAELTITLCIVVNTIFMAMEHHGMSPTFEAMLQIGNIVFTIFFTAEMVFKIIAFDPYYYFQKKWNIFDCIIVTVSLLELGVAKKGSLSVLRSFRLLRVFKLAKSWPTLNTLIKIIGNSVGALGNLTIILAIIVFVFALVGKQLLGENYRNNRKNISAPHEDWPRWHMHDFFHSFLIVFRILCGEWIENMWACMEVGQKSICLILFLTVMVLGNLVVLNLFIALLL
Sequence of human NaV 1.8 (Q9Y5Y9 1148-1722 limits assumed): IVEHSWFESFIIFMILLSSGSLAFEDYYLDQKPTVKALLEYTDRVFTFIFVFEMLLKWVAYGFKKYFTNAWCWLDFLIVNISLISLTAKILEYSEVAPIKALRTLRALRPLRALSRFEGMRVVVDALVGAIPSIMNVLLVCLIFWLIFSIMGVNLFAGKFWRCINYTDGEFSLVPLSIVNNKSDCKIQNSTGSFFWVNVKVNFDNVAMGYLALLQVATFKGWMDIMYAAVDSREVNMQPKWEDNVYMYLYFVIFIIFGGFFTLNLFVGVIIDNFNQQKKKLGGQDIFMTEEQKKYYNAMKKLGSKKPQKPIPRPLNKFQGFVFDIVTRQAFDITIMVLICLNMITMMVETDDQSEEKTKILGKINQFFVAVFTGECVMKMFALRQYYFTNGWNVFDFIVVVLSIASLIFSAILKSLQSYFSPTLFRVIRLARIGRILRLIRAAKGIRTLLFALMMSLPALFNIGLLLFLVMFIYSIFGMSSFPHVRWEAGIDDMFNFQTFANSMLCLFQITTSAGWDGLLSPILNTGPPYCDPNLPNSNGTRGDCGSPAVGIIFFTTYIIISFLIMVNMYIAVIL

The first test has as its target human NaV 1.8 (Homo sapiens, UniProt Q9Y5Y9). The test is described as follows: E-VIPR assay detecting and measuring NaV inhibition properties. It is filed as cell-based. The note with it: HEK cells expressing truncated human NaV 1.8; in the presence of human serum (compound numbers followed by *); read-out: IC50 in the E-VIPR Assay, performed in the presence of human serum. The gist of the method: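 HEK cells expressing truncated, fully active human NaV1.8, with KIR2.1 BacMam co-transduction, were loaded with CC2-DMPE/DiSBAC6(3) voltage-sensing dyes for 20 min at room temperature. Compounds were tested in 11-point 3-fold dilutions (300 nM top final), optionally with 25% human serum, under electrical stimulation with FRET read-out.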
For `COc1c([C@@H]2C[C@](C)(C(F)(F)F)O[C@H]2C(=O)Nc2ccnc([C@@H](O)[C@H](C)O)c2)ccc(F)c1F` (relative stereo) [Compound 700, rel-(2R,3S,5R)-3-(3,4-difluoro-2-methoxyphenyl)-N-(2-((1R,2S)-1,2-dihydroxypropyl)pyridin-4-yl)-5-methyl-5-(trifluoromethyl)tetrahydrofuran-2-carboxamide], the IC50 lay in the range of 10 to 100 nM.

Staying with this test, now noted: HEK cells expressing truncated human NaV 1.8; no human serum; read-out: IC50 in the E-VIPR Assay.
As for `COCC(c1ccc(NC(=O)[C@@H]2O[C@@](C)(C(F)(F)F)[C@@H](C)[C@H]2c2ccc(F)c(F)c2OC)cn1)N(C)C` (single isomer, unassigned) [Compound 426, rel-(2R*,3S*,4S*,5R*)-3-(3,4-difluoro-2-methoxyphenyl)-N-(6-(1-(dimethylamino)-2-methoxyethyl)pyridin-3-yl)-4,5-dimethyl-5-(trifluoromethyl)-tetrahydrofuran-2-carboxamide], the half-inhibitory concentration (IC50) was in the range of 100 to 1000 nM.

Turning to `COc1c([C@H]2[C@H](C(=O)NCCN3CCNC(=O)C3)O[C@@](C)(C(F)(F)F)[C@H]2C)ccc(F)c1F` [Compound 302, (2R,3S,4S,5R)-3-(3,4-difluoro-2-methoxyphenyl)-4,5-dimethyl-N-(2-(3-oxopiperazin-1-yl)ethyl)-5-(trifluoromethyl)tetrahydrofuran-2-carboxamide], the IC50 was no less than 1000 nM.

As to `Cc1nn(C(F)F)cc1NC(=O)[C@@H]1O[C@@](C)(C(F)(F)F)[C@@H](C)[C@H]1c1ccc(F)c(F)c1CCc1cn[nH]c1` [Compound 681, (2R,3S,4S,5R)-3-(2-(2-(1H-pyrazol-4-yl)ethyl)-3,4-difluorophenyl)-N-(1-(difluoromethyl)-3-methyl-1H-pyrazol-4-yl)-4,5-dimethyl-5-(trifluoromethyl)tetrahydrofuran-2-carboxamide], the IC50 fell in the range of 10 to 100 nM.

As to `COc1c([C@@H]2C[C@](C)(C(F)(F)F)O[C@H]2C(=O)Nc2ccnc(C(C)(O)CO)c2)ccc(F)c1F` (single isomer, unassigned) [Compound 701], the IC50 is 10 to 100 nM.

Consider `COc1c([C@H]2[C@H](C(=O)Nc3ccnc(NC(=O)CN(C)C)c3)O[C@@](C)(C(F)(F)F)[C@H]2C)ccc(F)c1F` [Compound 472, (2R,3S,4S,5R)-3-(3,4-difluoro-2-methoxyphenyl)-N-(2-(2-(dimethylamino)acetamido)pyridin-4-yl)-4,5-dimethyl-5-(trifluoromethyl)tetrahydrofuran-2-carboxamide], for which the half-inhibitory concentration (IC50) is 10 to 100 nM.

Regarding `COc1c([C@H]2[C@H](C(=O)Nc3cc(CO)n(C)n3)O[C@@](C)(C(F)(F)F)[C@H]2C)ccc(F)c1F` [Compound 263, (2R,3S,4S,5R)-3-(3,4-difluoro-2-methoxyphenyl)-N-(5-(hydroxymethyl)-1-methyl-1H-pyrazol-3-yl)-4,5-dimethyl-5-(trifluoromethyl)tetrahydrofuran-2-carboxamide], the IC50 fell in the range of 100 to 1000 nM.

For `COc1c([C@H]2[C@H](C(=O)Nc3ccc(-c4ncc[nH]4)nc3)O[C@@](C)(C(F)(F)F)[C@H]2C)ccc(F)c1F` [Compound 193, (2R,3S,4S,5R)-N-(6-(1H-imidazol-2-yl)pyridin-3-yl)-3-(3,4-difluoro-2-methoxyphenyl)-4,5-dimethyl-5-(trifluoromethyl)tetrahydrofuran-2-carboxamide], the IC50 fell in the range of 10 to 100 nM.

As for `C[C@H]1[C@@H](c2ccc(F)c(F)c2OC(F)F)[C@H](C(=O)Nc2ccnc(CCO)c2)O[C@@]1(C)C(F)(F)F` (single isomer, unassigned) [Compound 458], the IC50 was less than 10 nM.

With `COc1c([C@H]2[C@H](C(=O)Nc3ccnc(N4CCNCC4=O)c3)O[C@@](C)(C(F)(F)F)[C@H]2C)ccc(F)c1F` [Compound 411, (2R,3S,4S,5R)-3-(3,4-difluoro-2-methoxyphenyl)-4,5-dimethyl-N-(2-(2-oxopiperazin-1-yl)pyridin-4-yl)-5-(trifluoromethyl)-tetrahydrofuran-2-carboxamide], the IC50 is less than 10 nM.

As to `COc1c([C@H]2[C@H](C(=O)Nc3cc(C(O)CF)ncc3F)O[C@@](C)(C(F)(F)F)[C@H]2C)ccc(F)c1F` (single isomer, unassigned) [Compound 24], the IC50 is less than 10 nM.

Turning to `COc1nc(C(F)F)ccc1[C@@H]1[C@@H](C(=O)Nc2ccc(C(N)=O)nc2)O[C@](C)(C(F)(F)F)[C@@H]1C` (stereo in doubt) [Compound 735, rel-5-((2S,3R,4R,5S)-3-(6-(difluoromethyl)-2-methoxypyridin-3-yl)-4,5-dimethyl-5-(trifluoromethyl)tetrahydrofuran-2-carboxamido)picolinamide], the IC50 was no less than 1000 nM.

For `C[C@@H]1[C@H](c2ccc(F)c(F)c2OC(F)F)[C@@H](C(=O)Nc2ccnc(C(O)CO)c2)O[C@]1(C)C(F)(F)F` (single isomer, unassigned) [Compound 81], the half-inhibitory concentration (IC50) lay in the range of 100 to 1000 nM.

For `C[C@H]1[C@@H](c2ccc(F)c(F)c2OC(F)F)[C@H](C(=O)Nc2cc(S(C)(=O)=O)ccn2)O[C@@]1(C)C(F)(F)F` (single isomer, unassigned) [Compound 72], the IC50 was 10 to 100 nM.

With `CC1C(c2ccc(F)c(F)c2OC2CC(O)C2)C(C(=O)Nc2cc(CO)ncc2F)OC1(C)C(F)(F)F` [Compound 657, (2R,3S,4S,5R)-3-(3,4-difluoro-2-((1S,3R)-3-hydroxycyclobutoxy)phenyl)-N-(5-fluoro-2-(hydroxymethyl)pyridin-4-yl)-4,5-dimethyl-5-(trifluoromethyl)tetrahydrofuran-2-carboxamide], the half-maximal inhibitory concentration (IC50) was no less than 1000 nM.

Regarding `CN=S(C)(=O)c1cc(NC(=O)[C@@H]2O[C@@](C)(C(F)(F)F)[C@@H](C)[C@H]2c2ccc(F)c(F)c2OC)ccn1` (relative stereo) [Compound 528, rel-(2R,3S,4S,5R)-3-(3,4-difluoro-2-methoxyphenyl)-N-(2-(N,S-dimethylsulfonimidoyl)pyridin-4-yl)-4,5-dimethyl-5-(trifluoromethyl)tetrahydrofuran-2-carboxamide], the IC50 is less than 10 nM.

For `CNC(COC)c1cc(NC(=O)[C@@H]2O[C@@](C)(C(F)(F)F)[C@@H](C)[C@H]2c2ccc(F)c(F)c2OC)c(F)cn1` (single isomer, unassigned) [Compound 418, rel-(2R*,3S*,4S*,5R*)-3-(3,4-difluoro-2-methoxyphenyl)-N-(5-fluoro-2-(2-methoxy-1-(methylamino)ethyl)-pyridin-4-yl)-4,5-dimethyl-5-(trifluoromethyl)-tetrahydrofuran-2-carboxamide], the IC50 was less than 10 nM.

Consider `COc1nc(C(F)F)ccc1[C@H]1[C@H](C(=O)Nc2ccc(C(N)=O)nc2)O[C@@](C)(C(F)(F)F)[C@H]1C` (stereo in doubt) [Compound 734, rel-5-((2R,3S,4S,5R)-3-(6-(difluoromethyl)-2-methoxypyridin-3-yl)-4,5-dimethyl-5-(trifluoromethyl)tetrahydrofuran-2-carboxamido)picolinamide], for which the IC50 lay within 100 to 1000 nM.

Regarding `COc1c([C@@H]2[C@@H](C(=O)Nc3ccnc(C(=O)O)c3)O[C@](C)(C(F)(F)F)[C@@H]2C)ccc(F)c1C(F)F` (single isomer, unassigned) [Compound 175], the half-inhibitory concentration (IC50) was in the range of 100 to 1000 nM.

Regarding `COc1c([C@H]2[C@H](C(=O)NCC(C)N3CCN(C)CC3)O[C@@](C)(C(F)(F)F)[C@H]2C)ccc(F)c1F` (stereo partly drawn) [Compound 293, (2R,3S,4S,5R)-3-(3,4-difluoro-2-methoxyphenyl)-4,5-dimethyl-N-(2-(4-methylpiperazin-1-yl)propyl)-5-(trifluoromethyl)tetrahydrofuran-2-carboxamide], the IC50 is no less than 1000 nM.

In the case of `C[C@H]1[C@@H](c2ccc(F)c(F)c2OCCO)[C@H](C(=O)Nc2cnc(N3CCOCC3)nc2)O[C@@]1(C)C(F)(F)F` [Compound 542, (2R,3S,4S,5R)-3-(3,4-difluoro-2-(2-hydroxyethoxy)phenyl)-4,5-dimethyl-N-(2-morpholinopyrimidin-5-yl)-5-(trifluoromethyl)tetrahydrofuran-2-carboxamide], the IC50 was no less than 1000 nM.

Consider `COc1c([C@H]2[C@H](C(=O)Nc3ccc(C4(N)COC4)nc3)O[C@@](C)(C(F)(F)F)[C@H]2C)ccc(F)c1F` [Compound 213, (2R,3S,4S,5R)-N-(6-(3-aminooxetan-3-yl)pyridin-3-y1)-3-(3,4-difluoro-2-methoxyphenyl)-4,5-dimethyl-5-(trifluoromethyl)tetrahydrofuran-2-carboxamide], for which the IC50 is 10 to 100 nM.

Turning to `COc1c([C@H]2[C@H](C(=O)Nc3cnc4c(c3)OCC4O)O[C@@](C)(C(F)(F)F)[C@H]2C)ccc(F)c1F` (single isomer, unassigned) [Compound 408, rel-(2R*,3S*,4S*,5R*)-3-(3,4-difluoro-2-methoxyphenyl)-N-(3-hydroxy-2,3-dihydrofuro[3,2-b]pyridin-6-yl)-4,5-dimethyl-5-(trifluoromethyl)-tetrahydrofuran-2-carboxamide], the IC50 is 10 to 100 nM.

On to `COc1c([C@H]2[C@H](C(=O)Nc3ccnc(N4C[C@H]5CC[C@@H](C4=O)N5C)c3)O[C@@](C)(C(F)(F)F)[C@H]2C)ccc(F)c1F` (single isomer, unassigned) [Compound 503, rel-(2R*,3S*,4S*,5R*)-3-(3,4-difluoro-2-methoxyphenyl)-4,5-dimethyl-N-(2-((1S,5R)-8-methyl-2-oxo-3,8-diazabicyclo[3.2.1]octan-3-yl)pyridin-4-yl)-5-(trifluoromethyl)tetrahydrofuran-2-carboxamide], for which the IC50 was less than 10 nM.

Regarding `C[C@H]1[C@@H](c2ccc(F)c(F)c2O[C@H]2C[C@@H](O)C2)[C@H](C(=O)Nc2cncc(C#N)c2)O[C@@]1(C)C(F)(F)F` [Compound 659, (2R,3S,4S,5R)-N-(5-cyanopyridin-3-yl)-3-(3,4-difluoro-2-((1S,3R)-3-hydroxycyclobutoxy)phenyl)-4,5-dimethyl-5-(trifluoromethyl)tetrahydrofuran-2-carboxamide], the IC50 lay within 10 to 100 nM.
